Columns and labels:
Test in all cases: relative viability (nuclei count vs DMSO), 5 days (fraction); higher = more cells survive
ABC-1 = tested on: ABC-1
Summary of the method: (§1)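 One day after seeding in 1536-well plates, lung cancer cell lines were dosed by pin tool. Dosing was either single-drug or a fixed anchor-drug dose plus five library-drug doses (not always all listed) in √10 steps. After 5 days, nuclei were stained in one fix-and-stain step and counted on 4× images, and relative viability is the nuclei count of treated wells over that of vehicle wells, given as the median of duplicate plates.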

LC-2-ad = tested on: LC-2-ad
Summary of the method: as §1

NCI-H1650 = tested on: NCI-H1650
Summary of the method: as §1

NCI-H661 = tested on: NCI-H661
Summary of the method: as §1

HCC-15 = tested on: HCC-15
Summary of the method: as §1

NCI-H1944 = tested on: NCI-H1944
Summary of the method: as §1

H3255 = tested on: H3255
Summary of the method: as §1

PC-3 [JPC-3] = tested on: PC-3 [JPC-3]
Summary of the method: as §1

NCI-H596 = tested on: NCI-H596
Summary of the method: as §1

NCI-H441 = tested on: NCI-H441
Summary of the method: as §1

BEN = tested on: BEN
Summary of the method: as §1

LCLC-97TM1 = tested on: LCLC-97TM1
Summary of the method: as §1

Work on `Clc1ccc(Nc2nnc(Cc3ccncc3)c3ccccc23)cc1` [Vatalanib] + COc1cc2c(Oc3ccc(NC(=O)C4(C(=O)Nc5ccc(F)cc5)CC4)cc3F)ccnc2cc1OCCCN1CCOCC1 [Foretinib] (partner 0.25 µM) yielded a relative viability (ABC-1; first compound 1.265 µM) of 1.18, a relative viability (ABC-1; first compound 4 µM) of 0.989 and a relative viability (LC-2-ad; first compound 0.04 µM) of 0.999. The relative viability (LC-2-ad; first compound 0.1265 µM) was 0.777, the relative viability (LC-2-ad; first compound 1.265 µM) was 0.852 and the relative viability (LC-2-ad; first compound 4 µM) was 0.87. The relative viability (NCI-H1650; first compound 0.04 µM) was 1.22, the relative viability (NCI-H1650; first compound 0.1265 µM) was 1.05 and the relative viability (NCI-H1650; first compound 0.4 µM) was 0.89. It also gave a relative viability (NCI-H1650; first compound 1.265 µM) of 1, a relative viability (NCI-H1650; first compound 4 µM) of 1.27 and a relative viability (NCI-H661; first compound 0.04 µM) of 1. For the same compound, the relative viability (NCI-H661; first compound 0.1265 µM) was 1.04, the relative viability (NCI-H661; first compound 0.4 µM) was 1.07 and the relative viability (NCI-H661; first compound 1.265 µM) was 0.975. For the same compound, the relative viability (NCI-H661; first compound 4 µM) was 0.989, the relative viability (HCC-15; first compound 0.04 µM) was 1 and the relative viability (HCC-15; first compound 0.1265 µM) was 1.06. It also gave a relative viability (HCC-15; first compound 0.4 µM) of 1.02, a relative viability (HCC-15; first compound 1.265 µM) of 0.996 and a relative viability (HCC-15; first compound 4 µM) of 1.03. It also gave a relative viability (NCI-H1944; first compound 0.04 µM) of 0.934, a relative viability (NCI-H1944; first compound 0.1265 µM) of 0.891 and a relative viability (NCI-H1944; first compound 0.4 µM) of 0.936. For the same compound, the relative viability (NCI-H1944; first compound 1.265 µM) was 0.892, the relative viability (NCI-H1944; first compound 4 µM) was 0.87 and the relative viability (H3255; first compound 0.04 µM) was 0.763. For the same compound, the relative viability (H3255; first compound 0.1265 µM) was 0.917, the relative viability (H3255; first compound 0.4 µM) was 0.64 and the relative viability (H3255; first compound 1.265 µM) was 0.829. The relative viability (H3255; first compound 4 µM) was 0.789, the relative viability (PC-3 [JPC-3]; first compound 0.04 µM) was 1.05 and the relative viability (PC-3 [JPC-3]; first compound 0.1265 µM) was 0.977. For the same compound, the relative viability (PC-3 [JPC-3]; first compound 0.4 µM) was 1.05, the relative viability (PC-3 [JPC-3]; first compound 1.265 µM) was 0.987 and the relative viability (PC-3 [JPC-3]; first compound 4 µM) was 1.02. It also gave a relative viability (NCI-H596; first compound 0.04 µM) of 0.775, a relative viability (NCI-H596; first compound 0.1265 µM) of 1.06 and a relative viability (NCI-H596; first compound 0.4 µM) of 0.909. The relative viability (NCI-H596; first compound 1.265 µM) was 0.81, the relative viability (NCI-H596; first compound 4 µM) was 0.771 and the relative viability (NCI-H441; first compound 0.04 µM) was 0.994. It also gave a relative viability (NCI-H441; first compound 0.1265 µM) of 0.977, a relative viability (NCI-H441; first compound 0.4 µM) of 1.15 and a relative viability (NCI-H441; first compound 1.265 µM) of 0.881. The relative viability (NCI-H441; first compound 4 µM) was 0.893, the relative viability (BEN; first compound 0.04 µM) was 0.705 and the relative viability (BEN; first compound 0.1265 µM) was 0.526. For the same compound, the relative viability (BEN; first compound 0.4 µM) was 0.845, the relative viability (BEN; first compound 1.265 µM) was 0.511 and the relative viability (BEN; first compound 4 µM) was 0.696. For the same compound, the relative viability (LCLC-97TM1; first compound 0.04 µM) was 0.975, the relative viability (LCLC-97TM1; first compound 0.1265 µM) was 0.833 and the relative viability (LCLC-97TM1; first compound 0.4 µM) was 1.01. For the same compound, the relative viability (LCLC-97TM1; first compound 1.265 µM) was 0.949 and the relative viability (LCLC-97TM1; first compound 4 µM) was 0.835.

From the supplement of paper PMC10307832
